How the values were obtained:
[1] = Evaluation of precipitation suppressing effects with D-mannitol (absorbance at 620 nm in presence of ions assumed to be in urine); type: physicochemical; details: D-mannitol as medium for PMO Nos. 1, 2, 3, 5, 6, 7, ions assumed to be in urine, 37° C.
Experimental: The amount of precipitation in the presence of ions assumed to be in urine and precipitation suppressing effects of D-mannitol were evaluated on the antisense oligomers of PMO Nos. 1, 2, 3, 5, 6, and 7 (SEQ ID NO: 1, 2, 3, 5, 6, and 7) among those listed in Table 1 to further verify their utility for pharmaceutical applications.

C57BL/6J male mice [2] = assay: Evaluation of nephrotoxicity reducing effects of D-mannitol: serum BUN and Cre after tail vein administration of PMO dosing solutions; details: D-mannitol in PMO dosing solution vs control dosing solution comprising no D-mannitol
Source text: The antisense oligomers of PMO Nos. 1, 2, 6, 7, and 10 were each dissolved in water for injection comprising 0.9% sodium chloride (manufactured by Otsuka Pharmaceutical Co., Ltd.) to prepare a control dosing solution comprising each of the antisense oligomers at the concentrations shown in Tables 2, 3, 6, 7, and 8 and comprising no D-mannitol. Also, the antisense oligomers of PMO Nos. 3 and 4 were each dissolved in 5% glucose (manufactured by Otsuka Pharmaceutical Co., Ltd.) to prepare a control dosing solution comprising each of the antisense oligomers at the concentrations shown in Tables 4 and 5 and comprising no D-mannitol. […]
The obtained dosing solutions were administered into the tail vein of 6-week-old C57BL/6J male mice at 4, 10, and 20 mL/kg. Next day, serum was collected from the mice, and the blood urea nitrogen (BUN) values and blood creatinine (Cre) values were measured with the urease-GIDH method and the enzymatic method, respectively, using automatic biochemical analyzers JCA-BM6050 or JCA-BM8060 (manufactured by JEOL Ltd.).

C57BL/6J male mice [3] = assay: Evaluation of nephrotoxicity reducing effects of D-sorbitol: serum BUN and Cre after tail vein administration of PMO dosing solutions; details: D-sorbitol in PMO dosing solution vs dosing solution comprising no D-sorbitol
Experimental: Next, the antisense oligomer of PMO No. 2 was dissolved in a solution obtained by dissolving D-sorbitol (manufactured by Maruishi Pharmaceutical Co., Ltd.) with physiological saline to prepare a dosing solution comprising the antisense oligomer and D-sorbitol at the concentrations shown in Table 9. Also, the antisense oligomer of PMO No. 3 was dissolved in a solution obtained by dissolving D-sorbitol with water for injection to prepare a dosing solution comprising the antisense oligomer and D-sorbitol at the concentrations shown in Table 10.
The obtained dosing solutions were administered into the tail vein of 6-week-old C57BL/6J male mice (N=3) at 4 and 10 mL/kg. Next day, serum was collected from the mice, and the blood urea nitrogen (BUN) values and blood creatinine (Cre) values were measured with the urease-GIDH method and the enzymatic method, respectively, using automatic biochemical analyzers JCA-BM8060 (manufactured by JEOL Ltd.). It was determined that the nephrotoxicity was reduced in a case where both of the BUN values and Cre values decreased in the mice to which the dosing solution comprising D-sorbitol has been administered, compared to the mice to which the dosing solution comprising no D-sorbitol has been administered.

Q: Which Precipitation suppressing effect [1] does the source give for `OC[C@@H](O)[C@@H](O)[C@H](O)[C@H](O)CO` [D-mannitol] here?
A: The Precipitation suppressing effect was “suppress the precipitation of antisense oligomers”.

Q: And the Nephrotoxicity reducing effect (C57BL/6J male mice [2])?
A: The Nephrotoxicity reducing effect was “reduce nephrotoxicity”.

Q: With `OC[C@@H](O)[C@@H](O)[C@H](O)[C@@H](O)CO` [D-sorbitol] as the compound, how does the Nephrotoxicity reducing effect (C57BL/6J male mice [3]) read?
A: The Nephrotoxicity reducing effect was “reduce nephrotoxicity”.
